Residues, ends and D or L forms follow the SMILES beside them.
Legend:
[1] = test system: HIV-1IIIB; assay: HIV-1 antiviral assay (CPE reduction) in CEM-SS cells; type: cell-based; conditions: peptide 10 micrograms per ml; 6 days post-infection; MTS readout
[2] = test system: CEM-SS cells; assay: Cytotoxicity (MTS cell viability) in the HIV-1 assay; conditions: peptide 10 micrograms per ml
[3] = test system: hepatitis B virus (HBV) ayw strain; assay: HBV replication assay in HepG2-2.2.15 cells (TaqMan PCR of secreted HBV DNA); type: cell-based; conditions: peptide 10 micrograms per ml, six days, HBV DNA in supernatant
[4] = Cell viability (dye uptake) in the HBV assay; type: cell-based; conditions: human, HepG2-2.2.15 cells, peptide 10 micrograms per ml
[5] = test system: Human A549 cells; assay: Propidium iodide cell cycle assay; type: cell-based; conditions: 10 micrograms per ml, 24 hours, FACS
[6] = test system: Human Peripheral Blood Mononuclear Cells (PBMC), B cell proliferation; assay: B cell proliferation assay (SAC plus IL-2 stimulated PBMC, 3H-thymidine); type: cell-based; conditions: 10 micrograms per ml
[7] = test system: RAW 264.7 cells; assay: Phagocytosis assay (Fluorescein-labeled Escherichia coli, flow cytometry); type: cell-based, mouse; conditions: 10 micrograms per ml, Fluorescein-labeled E. coli
Method: The samples were then analyzed by flow cytometry to determine the amount of phagocytosis as a function of brightness (the greater the phagocytic activity, the more fluorescence in the macrophage population). Data are reported as % positive and the mean fluorescence intensity (MFI) of positively stained cells.

[8] = test system: Human A549 cells; assay: Apoptosis induction assay (Annexin-5); type: cell-based; conditions: 24 hours
Method: Human A549 cells (carcinomic human alveolar basal epithelial cells) were utilized in the experiments employing the Annexin-5 apoptosis assay. […] Test peptide-micrograms per ml—were exposed for 24 hours to the A549 cells before they were analyzed for signs of apoptosis.

[9] = test system: Human A549 cells; assay: Apoptosis prevention assay (C2 ceramide, Annexin-5); type: cell-based; conditions: 10 micrograms per ml pretreatment 30 min
From the text: Human A549 cells (carcinomic human alveolar basal epithelial cells) were utilized in the experiments employing the Annexin-5 apoptosis assay.

[10] = test system: spleen cells of Ovalbumin-immunized Balb/c mice; assay: Th1/Th2 cytokine profiling assay (Ovalbumin-restimulated spleen cells, CBA kit); type: cell-based, mouse; conditions: 10 micrograms per ml; Ovalbumin restimulation; 72 hours
[11] = test system: macrophages differentiated from human PBMC, TNF alpha production; assay: TNF alpha production assay (LPS-stimulated macrophages, ELISA); type: cell-based; conditions: 10 micrograms per ml, lipopolysaccharide 200 ng/ml, overnight
From the text: Not stimulated macrophages served as negative background control.

[12] = test system: Primary Human endothelial cells (HUVEC); assay: Endothelial cell migration assay; type: cell-based; conditions: 10 micrograms per ml, 22 hours
[13] = test system: HUVEC; assay: Endothelial tube formation assay; type: cell-based, human; conditions: 10 micrograms per ml, 20 hours
From the text: Positive control was vehicle only.

[14] = test system: human peripheral blood mononuclear cells (PBMC), cyclic AMP generation; assay: cAMP induction assay (ELISA); type: cell-based; conditions: 10 min at 37° C., forskolin 50 micrograms per ml
Method: The cAMP kit was used as an immunoassay for the quantitative determination of cyclic AMP generation in human peripheral blood mononuclear cells (PBMC). PBMC were placed in 96-well microtitier plates (50 microliters of cells at 4×10^6/ml) and 50 microliters of medium alone (background control), forskolin (cAMP positive control; 50 micrograms per ml), or test peptide were added. […] NaOH was added to neutralize the samples. Plates were centrifuged for 15 min at 2500 rpm and the supernatants removed. The supernatants (diluted 2-fold in assay buffer) were then assayed for the levels of cAMP by ELISA.

[15] = in vitro; conditions: human, CEM-SS cells (uninfected; cells plus peptide only)
[16] = in vitro; conditions: human, MRC-5 cells (embryonal lung fibroblasts)
[17] = test system: HCMV strain AD169; assay: HCMV plaque reduction assay in MRC-5 cells; conditions: HCMV AD169 in MRC-5 cells; peptide 10 micrograms per ml; 7-10 days
[18] = test system: Human Peripheral Blood Mononuclear Cells (PBMC), T cell proliferation; assay: T cell proliferation assay (PHA-stimulated PBMC, 3H-thymidine); conditions: 10 micrograms per ml
[19] = test system: HepG2-2.2.15 cells; assay: Cell viability (dye uptake) in the HBV assay; type: cell-based; conditions: peptide 10 micrograms per ml

SMILES: Cc1cn([C@H]2C[C@H](N=[N+]=[N-])[C@@H](CO)O2)c(=O)[nH]c1=O [AZT, reference compound]
- % CPE reduction in HIV-1 infected CEM-SS cells [1]: 99%
- % Cell viability [2]: 97%

SMILES: CC[C@H](C)[C@H](NC(=O)[C@H](C)NC(=O)CNC(=O)[C@H](CCCNC(=N)N)NC(=O)[C@H](C)NC(=O)[C@H](CC(C)C)NC(=O)[C@H](CCC(=O)O)NC(=O)[C@H](CC(C)C)NC(=O)[C@H](C)NC(=O)[C@@H](N)CCC(=O)O)C(=O)N[C@@H](Cc1ccccc1)C(=O)N[C@@H](CCC(N)=O)C(=O)N[C@@H](C)C(N)=O [BINP] (H-EALELARGAIFQA-NH2)
- % CPE reduction in HIV-1 infected CEM-SS cells [1]: 0.0%
- % inhibition of HBV replication in HEP G2 cells [3]: 8.2%
- viability at 144 h, 10 micrograms per ml [4]: 96.9%
- Cell cycle analysis G0/G1 [5]: 57.9
- Cell cycle analysis G2/M [5]: 12.2
- Cell cycle analysis S [5]: 29.9
- % of SAC/IL2 induced control [6]: 96.5%
- % of control phagocytosis [7]: 134.3%
- % of induction [8]: 0.2%
- % prevention of ceramide induced apoptosis [9]: 0.0%
- IFNγ spleen cells; TH1 response (% of control) [10]: 133.9 % of control
- IL-2 spleen cells (% of control) [10]: 0.0 % of control
- IL-4 spleen cells; TH2 response (% of control) [10]: 0.0 % of control
- IL-5 spleen cells; TH2 response (% of control) [10]: 50.3 % of control
- TNF-a spleen cells; TH1 response (% of control) [10]: 97.0 % of control
- % of LPS induction [11]: 102.3%
- % inhibition of migration [12]: 8%
- % inhibition of tube formation [13]: −1%
- % of Forskolin (positive control) induced cAMP formation [14]: 44.3%
- viability at 10 micrograms per ml [15]: 99.1%
- viability at 144 h [16]: 99.7%
- % plaque reduction [17]: 1.0%
- % of PHA induced Control [18]: 96.2%

SMILES: Nc1ccn([C@@H]2CS[C@H](CO)O2)c(=O)n1 [Compound 3TC, Lamivudine, reference compound]
- % Cell viability [19]: 95.8%

From patent publication US20100256043A1, “USE OF A PEPTIDE AS A THERAPEUTIC AGENT” (priority 2007, published 2010)
